Assay results taken from PMC7767178 (International Journal of Molecular Sciences, 2020).
Values joined by “and” are separate entries in the source; they are usually repeats but may differ in a detail not shown here. Equal entries are not always repeated. Where two headings read alike, the source gives them in different places. Positions of bridges follow the written chain, without caps; N, C: chain ends. Residues, ends and D or L forms follow the SMILES beside them.

Key:
[1] = tested on: A. veronii ACCC61732 in biofilm; type: cell-based; conditions: 2 h
Method: The mid-log phase A. veronii ACCC61732 cells (1 × 10^8 CFU/mL) were inoculated into in the 96-well plates and cultured for 24 h at 37 °C. The plates were washed twice with PBS. […] PBS was used as the negative control. The plates were treated with ultrasound for 5 min and the viable bacteria were counted on the TSA plates.

A. veronii ACCC61732 [2] = experiment: Time-killing curves; type: cell-based; conditions: 2× MIC; 1 × 10^5 CFU/mL, colony counting, 0–24 h
Method: Time-killing curves were performed as previously described. […] The sample of 100 μL was taken from each flask at 0, 0.5, 1, 2, 4, 6, 8, 10, 20, and 24 h, respectively, and serially diluted for colony counting. PBS and CIP were used as the negative and positive control, respectively.

A. veronii ACCC61732 [3] = experiment: Resistance development, 30 serial passages; type: cell-based; conditions: A. veronii ACCC61732, 30 passages (30 days)
Method: The development of bacterial resistance of peptides was performed by the MIC assays. […] GEN, CIP, and PMB were used as controls. […] The MIC values were measured as described above. The serial passaging was repeated for 30 days.

A. veronii ACCC61732 [4] = experiment: Post-antibiotic effect (PAE); type: cell-based; conditions: for PAE: 2 h exposure, 1000-fold dilution, 37 °C, triplicate; for PAEs, range over 1×–4× MIC: 1× to 4× MIC
Method: The samples were taken from flasks for counting each hour until bacterial cultures became turbid. The untreated bacteria severed as controls. The PAE was calculated using the following equation: PAE = T − C, where T is the time (h) required for the CFU in the test culture to increase by 10-fold from the count immediately after the drug removal and C is the corresponding time (h) for the control. The experiment was performed in triplicate.

[5] = tested on: A. veronii ACCC61732 biofilms; experiment: Mouse model of catheter-associated biofilm infection, bacteria in catheter; type: in vivo, ICR mice; conditions: 5 μmol/kg peptide or CIP 24 h after catheter implantation, catheters collected after seven days, six mice per group
Method: Briefly, the catheter was cut into 1 cm segments; each piece was sterilized with 70% ethanol and then dried by air. Bacterial biofilms were developed on the catheter by placing individual segments into tubes containing 1.0 mL of a cell suspension (1 × 10^8 CFU/mL) in TSB. After incubation for 24 h at 37 °C, colonized catheters were recovered aseptically and rinsed with PBS to remove unbound bacteria. ICR female mice (20 ± 5 g) were anesthetized with isoflurane; the flanks were shaved and the skin was cleansed with alcohol. […] The incision was then covered with intact skin and closed with surgical suture line and the skin was disinfected. […] The untreated mice were used as the negative control and the mice with sterile catheter were used as the blank control. The mice were anesthetized and sacrificed after seven days. The catheters in the back of the mice were collected and thoroughly shaken in sterile PBS.

A. veronii ACCC61732 [6] = experiment: Mouse peritonitis model, bacterial translocation to organs; type: in vivo, ICR mice; conditions: 5 μmol/kg, 24 h post-treatment, colony counting
Method: Sera and organs (livers, kidneys, spleens, and lungs) were collected from the mice at 24 h post-treatment. The organs were homogenized in sterile PBS to evaluate bacterial translocation by colony counting. The levels of cytokines (TNF-α, IL-1β, IL-6, and IL-10) in sera were detected using the ELISA kits.

S. pullorum CVCC1789 = experiment: microbe, parasite or virus in culture; type: cell-based
Text: (§1) All experiments were repeated three times.

[7] = tested on: Staphylococcus aureus ATCC43300; experiment: microbe, parasite or virus in culture; type: cell-based
Text: as §1

E. coli CVCC1515 = experiment: microbe, parasite or virus in culture; type: cell-based
Text: as §1

Escherichia coli CVCC195 = experiment: microbe, parasite or virus in culture; type: cell-based; conditions: Escherichia coli CVCC195, broth dilution, 37 °C, 16–18 h, three experiments
Text: as §1

S. pullorum CVCC533 = experiment: microbe, parasite or virus in culture; type: cell-based
Text: as §1

E. coli CVCC25922 = experiment: microbe, parasite or virus in culture; type: cell-based; conditions: E. coli CVCC25922, broth dilution, 37 °C, 16–18 h, three experiments
Text: as §1

S. pullorum CVCC1809 = experiment: microbe, parasite or virus in culture; type: cell-based; conditions: S. pullorum CVCC1809, broth dilution, 37 °C, 16–18 h, three experiments
Text: as §1

A. veronii X-1-06909 = experiment: microbe, parasite or virus in culture; type: cell-based
Text: as §1

[8] = tested on: Candida albicans CMCC98001; experiment: microbe, parasite or virus in culture; type: cell-based
Text: as §1

S. enteritidis CVCC3377 = experiment: microbe, parasite or virus in culture; type: cell-based
Text: as §1

trypsin = conditions: pH 8
S. hyicus 437-2 = type: cell-based
E. coli CVCCO157 = experiment: MIC, microtiter broth dilution; type: cell-based; conditions: 37 °C, 16–18 h, three experiments
Text: as §1

[9] = S. pullorum CVCC1789, broth dilution, 37 °C, 16–18 h, three experiments
[10] = Staphylococcus aureus ATCC43300, broth dilution, 37 °C, 16–18 h, three experiments
[11] = E. coli CVCC1515, broth dilution, 37 °C, 16–18 h, three experiments
[12] = S. pullorum CVCC533, broth dilution, 37 °C, 16–18 h, three experiments
[13] = A. veronii X-1-06909, broth dilution, 37 °C, 16–18 h, three experiments
[14] = S. enteritidis CVCC3377, broth dilution, 37 °C, 16–18 h, three experiments
[15] = S. hyicus 437-2 (clinical isolate, pig farm), broth dilution, 37 °C, 16–18 h, three experiments

| SMILES | bacteria in biofilm killed [1]; 8 [%] | bacteria in biofilm killed [1]; 16 [%] | time to completely kill A. veronii ACCC61732 (A. veronii ACCC61732 [2]) | increase of MIC after 30 serial passages (A. veronii ACCC61732 [3]) | PAE (A. veronii ACCC61732 [4]; 1× MIC) [h] | PAEs, range over 1×–4× MIC (A. veronii ACCC61732 [4]) [h] | PAE (A. veronii ACCC61732 [4]; 2× MIC) [h] | PAE (A. veronii ACCC61732 [4]; 4× MIC) | decrease of bacterial cells in the catheter [5] [%] | reduction of bacteria in kidneys (A. veronii ACCC61732 [6]) [%] | reduction of bacteria in livers (A. veronii ACCC61732 [6]) [%] | reduction of bacteria in lungs (A. veronii ACCC61732 [6]) [%] | reduction of bacteria in spleens (A. veronii ACCC61732 [6]) [%] | MIC (S. pullorum CVCC1789; CVCC1789, read-out: MIC) [µM] | MIC (S. pullorum CVCC1789; [9]) [µg/mL] | MIC [7, 10] [µg/mL] | MIC (E. coli CVCC1515; CVCC1515, read-out: MIC) [µM] | MIC (E. coli CVCC1515; [11]) [µg/mL] | MIC (Escherichia coli CVCC195) [µg/mL] | MIC (Escherichia coli CVCC195; read-out: MIC) [µM] | also measured |
| --- | --- | --- | --- | --- | --- | --- | --- | --- | --- | --- | --- | --- | --- | --- | --- | --- | --- | --- | --- | --- | --- |
| CC(C)[C@@H]1NC(=O)CNC(=O)[C@H](CC(N)=O)NC(=O)[C@H](CCCNC(=N)N)NC(=O)[C@H](Cc2ccc(O)cc2)NC(=O)[C@H](C(C)C)NC(=O)[C@@H](NC(=O)[C@@H](NC(=O)[C@H](CC(N)=O)NC(=O)[C@H](Cc2c[nH]c3ccccc23)NC(=O)[C@H](C)NC(=O)[C@H](Cc2ccccc2)NC(=O)CN)C(C)C)CSSC[C@@H](C(=O)N[C@@H](Cc2c[nH]cn2)C(=O)N[C@@H](CCCNC(=N)N)C(=O)N2CCC[C@H]2C(=O)N[C@@H](C)C(=O)N[C@@H](CC(N)=O)C(N)=O)NC(=O)[C@H](C(C)C)NC(=O)[C@H](CCCNC(=N)N)NC1=O [N6PNH2] (H-GFAWNVCVYRNGVRVCHRPAN-NH2; disulfide 7-16 (inferred)) | 57.99 | 67.44 | 2 h | three-fold | 0.52 ± 0.01 | 0.52 to 0.68 | 0.62 ± 0.01 | 0.68 h and 0.68 ± 0.01 h | 54.09 | 18.36 | 31.54 | 15.92 | 28.47 | 6.62 | 16 | >64 | 1.66 | 4 | 8 | 3.31 | MIC (S. pullorum CVCC533; CVCC533, read-out: MIC): 13.25 µM; MIC (S. pullorum CVCC533; [12]): 32 µg/mL; MIC (E. coli CVCC25922): 8 µg/mL; MIC (E. coli CVCC25922; read-out: MIC): 3.31 µM; MIC (S. pullorum CVCC1809): 8 µg/mL; MIC (S. pullorum CVCC1809; read-out: MIC): 3.31 µM; MIC (A. veronii X-1-06909; [13]): 64 µg/mL; MIC (A. veronii X-1-06909; read-out: MIC): 26.49 µM; MIC ([8]; CMCC98001, read-out: MIC): >52.98 µM; MIC (S. enteritidis CVCC3377; CVCC3377, read-out: MIC): 0.83 µM; MIC (S. enteritidis CVCC3377; [14]): 2 µg/mL; MIC after trypsin treatment (trypsin): lost their activity; MIC (S. hyicus 437-2; [15]): >64 µg/mL; MIC (E. coli CVCCO157): 8 µg/mL; MIC (E. coli CVCCO157; read-out: MIC): 3.31 µM |
| CC(C)[C@H](N)C(=O)N[C@@H](Cc1ccccc1)C(=O)N[C@@H](C)C(=O)N[C@@H](Cc1c[nH]c2ccccc12)C(=O)N[C@@H](CC(N)=O)C(=O)N[C@H](C(=O)N[C@H]1CSSC[C@@H](C(=O)N[C@@H](Cc2c[nH]cn2)C(=O)N[C@@H](CCCNC(=N)N)C(=O)N[C@@H](CCCNC(=N)N)C(=O)N[C@@H](C)C(=O)N[C@@H](CC(N)=O)C(N)=O)NC(=O)[C@H](C(C)C)NC(=O)[C@H](CCCNC(=N)N)NC(=O)[C@H](C(C)C)NC(=O)[C@H](C(C)C)NC(=O)[C@H](CC(N)=O)NC(=O)[C@H](CCCNC(=N)N)NC(=O)[C@H](Cc2ccc(O)cc2)NC(=O)[C@H](C(C)C)NC1=O)C(C)C [V112N6NH2] (H-VFAWNVCVYRNVVRVCHRRAN-NH2; disulfide 7-16 (inferred)) | 46.21 | 52.04 | unable completely kill | one-fold | 0.74 ± 0.02 | 0.74 to 2.15 | 1.48 ± 0.05 | 2.15 ± 0.13 h | 55.29 | 63.42 | 52.71 | 83.57 | 63.87 | 6.25 | 16 | 32 | 1.56 | 4 | 8 | 3.13 | MIC ([7]; ATCC43300, read-out: MIC): 12.5 µM; MIC (S. pullorum CVCC533; CVCC533, read-out: MIC): 6.25 µM; MIC (S. pullorum CVCC533; [12]): 16 µg/mL; MIC (E. coli CVCC25922): 8 µg/mL; MIC (E. coli CVCC25922; read-out: MIC): 3.13 µM; MIC (S. pullorum CVCC1809): 8 µg/mL; MIC (S. pullorum CVCC1809; read-out: MIC): 3.13 µM; MIC (A. veronii X-1-06909; [13]): 32 µg/mL; MIC (A. veronii X-1-06909; read-out: MIC): 12.51 µM; MIC ([8]; CMCC98001, read-out: MIC): >50.02 µM; MIC ([8]; Candida albicans CMCC98001, broth dilution, 37 °C, 16–18 h, three experiments): >128 µg/mL; MIC (S. enteritidis CVCC3377; CVCC3377, read-out: MIC): 0.78 µM; MIC (S. enteritidis CVCC3377; [14]): 2 µg/mL; MIC after trypsin treatment (trypsin): lost their activity; MIC (S. hyicus 437-2): 12.5 µM; MIC (S. hyicus 437-2; [15]): 32 µg/mL; MIC (E. coli CVCCO157): 8 µg/mL; MIC (E. coli CVCCO157; read-out: MIC): 3.13 µM |
